Measurements as given in US9987276B2 (Celgene CAR LLC, priority 2008, dated 2018).
Where two headings read alike, the source gives them in different places.

Legend:
[1] = target: T1, BTK (Homo sapiens (Human), UniProt Q06187); assay: Human primary B cell covalent probe occupancy in vitro; format: cell-based; conditions: human primary B cells, 1 h at 37° C., probe I-215 ELISA
Method: (§1) In order to determine the amount of free BTK in cell or tissue lysates, an ELISA protocol was employed that utilizes a biotinylated probe compound that binds only to free, unoccupied BTK. The conjugated biotin is captured on a streptavidin-coated ELISA plate and detected with a mouse anti-BTK antibody (Becton Dickinson, Franklin Lakes, N.J., USA) and a secondary goat anti-mouse HRP antibody (Zymed, South San Francisco, Calif., USA).
(§2) All samples were prepared with equal concentrations of Biorad lysis buffer (Hercules, Calif., USA), 0.5% bovine serum albumin in PBS with 0.05% Tween-20 to give a final concentration of 1 μM I-215. Samples were incubated in a mixing plate for 1 hr at room temperature while shaking to allow probe compound I-215 to bind to free BTK. After incubation with I-215, samples were added to a washed, streptavidin-coated ELISA plate (Pierce, Rockford, Ill., USA) and incubated for 1 hr at room temperature while shaking. […] TMB was added to the plate, and OD650 was monitored until reaching 1 OD unit. […] The plate was analyzed using Gen 5 software, and a 4 Parameter Logistic curve was employed to quantitate samples. […]
Human primary B cells were isolated as described in Example 256, then resuspended in RPMI media (10% serum). The compound to be analyzed was added at a 1:1000 dilution to media. […] The supernatant was analyzed as described in Example 283 using I-215.

[2] = target: T1, BTK; assay: BTK occupancy from in vitro samples by ELISA (Ramos cells); format: cell-based; conditions: ELISA with probe I-215
Method: as §1
All samples were prepared with equal concentrations of Biorad lysis buffer (Hercules, Calif., USA), 0.5% bovine serum albumin in PBS with 0.05% Tween-20 to give a final concentration of 1 μM I-215. Samples were incubated in a mixing plate for 1 hr at room temperature while shaking to allow probe compound I-215 to bind to free BTK. After incubation with I-215, samples were added to a washed, streptavidin-coated ELISA plate (Pierce, Rockford, Ill., USA) and incubated for 1 hr at room temperature while shaking. The plate was then washed with PBS containing 0.05% Tween-20 using an automatic plate washer. Anti-BTK antibody was prepared at 1:1000 dilution in 0.5% BSA in PBS (0.05% Tween-20) and added to the ELISA plate. The plate was incubated for 1 hr at room temperature while shaking. The plate was washed as described above and the secondary HRP antibody was prepared at 1:5000 dilution in 0.5% BSA in PBS (0.05% Tween-20). The plate was incubated and washed as described above. TMB was added to the plate, and OD650 was monitored until reaching 1 OD unit. The reaction was then stopped with addition of H2SO4. The plate was analyzed using Gen 5 software, and a 4 Parameter Logistic curve was employed to quantitate samples. Recombinant BTK (Invitrogen, Carlsbad, Calif., USA) was used for the standard curve.
A concentration designated as “A” is greater than 1 nM; a concentration designated as “B” is greater than 10 nM; and a concentration designated as “C” is greater than 50 nM.

[3] = target: T1, BTK; assay: Mass spectrometry for BTK (intact protein); format: binding; conditions: 1 hr, 10× fold excess of compound
Method: Intact BTK was incubated for 1 hr at a 10× fold excess of I-7 to protein. Aliquots (2 μl) of the samples were diluted with 10 μl of 0.1% TFA prior to micro C4 ZipTipping directly onto the MALDI target using Sinapinic acid as the desorption matrix (10 mg/ml in 0.1% TFA:Acetonitrile 20:80).

[4] = target: EGFR-WT (Homo sapiens (Human), UniProt P00533); assay: Omnia assay for potency assessment against EGFR (WT)
[5] = target: ITK (Homo sapiens (Human), UniProt Q08881); assay: Omnia assay for potency assessment against active forms of ITK kinase; format: biochemical; conditions: [ITK]=10 nM, [ATP]=25, [Y6-Sox]=10 μM; read-out: ITK Inhibition
Method: [ITK]=10 nM, [ATP]=25 [Y6-Sox]=10 μM (ATP KMapp=33 μM).

[6] = tested on: TI-2 independent B cell activation; assay: In vivo thymus-independent (TI-2) B cell activation; conditions: C57/B6 mice, 100 mg/kg daily day 0 through 5, TNP-Ficoll, serum day 6
[7] = target: T1, BTK; assay: Omnia assay for potency assessment against BTK; format: biochemical; conditions: for IC50: [BTK]=5 nM, Omnia assay, read-out: BTK Inhibition (IC50)
Method: The modified BTK-optimized reagent conditions for the above protocol are:
[BTK]=5 nM, [ATP]=[…], [Y5-Sox]=[…] (ATP KMapp˜[…]).

[8] = tested on: Human naïve B cells; assay: Human primary B cell proliferation assay; format: cell-based
Method: Human naïve B cells were purified from 100 mL whole blood using a MACS purification kit designed to isolate CD19+, IgD+ cells by negative selection. Purified naïve B cells were resuspended in RPMI complete and stimulated with 5 μg/ml α-IgM for 72 hours. ^3H-Thymidine was included in the culture media for the final 16 h, cells were harvested and ^3H incorporation measured. Inhibition of B cell proliferation correlates with inhibition of BTK substrate phosphorylation after α-IgM stimulation.

[9] = target: EGFR-T790M/L858R (Homo sapiens (Human), UniProt P00533, L858R/T790M); assay: Omnia assay for potency assessment against EGFR (T790M/L858R); conditions: read-out: EGFR (T790M/L858R); EGFR mutant T790M/L858R
[10] = PG-PS arthritis model; format: in vivo; conditions: female Lewis rats, oral gavage daily through day 22
Method: On day 0, female Lewis rats received an intraperitoneal (IP) bolus of peptidoglycan-polysaccharide (PG-PS) in an amount of 15 μg/g rat body weight. Baseline control rats received an IP bolus of PBS. The vehicle and treatment groups were dosed via oral gavage just prior to PG-PS administration. Treatment with vehicle and compound continued each day through day 22. Maximal lateral ankle width measurements of both rear limbs were collected with a caliper throughout the study. On day 23, study was terminated and the final change in ankle swelling was calculated and compared to vehicle controls.

[11] = target: T1, BTK; assay: BTK Ramos cellular assay (PLCγ2 phosphorylation); format: cell-based; conditions: Ramos cells, 1 hour compound, anti-IgM stimulation, p-PLCγ2; read-out: BTK Inhibition (IC50), BTK Ramos cellular inhibition
[12] = target: EGFR T790M (Homo sapiens (Human), UniProt P00533, T790M); assay: EGFR mutant T790M inhibition assay; format: biochemical
Method: The Omnia Assay Protocol for potency assessment against EGFR is performed as described in Example 251 above except that the EGFR-WT- and EGFR T790M/L858R-modified optimized reagent conditions are: […]

[13] = target: BTK (Canis lupus familiaris, UniProt A0A8I3P3Z9); assay: Dog primary B cell covalent probe occupancy in vitro; format: cell-based; conditions: canine PBMCs, one hour at 37° C., probe I-215 ELISA
Method: as §1, §2
Canine whole blood (30 mL) was diluted to 50 mL total with 1×PBS and layered on top of Histopaque-1077 (Sigma Aldrich). […] The supernatant was analyzed as described in Example 283 using I-215. […]

[14] = target: ERBB1 (Homo sapiens (Human), UniProt P00533); assay: Z'-LYTE kinase inhibition, ErbB1; format: biochemical
Method: (§3) Compounds of the present invention were assayed as inhibitors of one or more of ErbB1, ErbB2, and/or ErbB4 in a manner substantially similar to the method described by Invitrogen Corp (Invitrogen Corporation, 1600 Faraday Avenue, Carlsbad, Calif., CA; http://www.invitrogen.com/downloads/Z-LYTE_Brochure_1205.pdf) using the Z'-LYTE™ biochemical assay procedure or similar biochemical assay. The Z'-LYTE™ biochemical assay employs a fluorescence-based, coupled-enzyme format and is based on the differential sensitivity of phosphorylated and non-phosphorylated peptides to proteolytic cleavage.

[15] = target: ERBB4 (HER4) (Homo sapiens (Human), UniProt Q15303); assay: Z'-LYTE kinase inhibition, ErbB4; format: biochemical
Method: as §3

T1 sequence (Q06187 whole entry): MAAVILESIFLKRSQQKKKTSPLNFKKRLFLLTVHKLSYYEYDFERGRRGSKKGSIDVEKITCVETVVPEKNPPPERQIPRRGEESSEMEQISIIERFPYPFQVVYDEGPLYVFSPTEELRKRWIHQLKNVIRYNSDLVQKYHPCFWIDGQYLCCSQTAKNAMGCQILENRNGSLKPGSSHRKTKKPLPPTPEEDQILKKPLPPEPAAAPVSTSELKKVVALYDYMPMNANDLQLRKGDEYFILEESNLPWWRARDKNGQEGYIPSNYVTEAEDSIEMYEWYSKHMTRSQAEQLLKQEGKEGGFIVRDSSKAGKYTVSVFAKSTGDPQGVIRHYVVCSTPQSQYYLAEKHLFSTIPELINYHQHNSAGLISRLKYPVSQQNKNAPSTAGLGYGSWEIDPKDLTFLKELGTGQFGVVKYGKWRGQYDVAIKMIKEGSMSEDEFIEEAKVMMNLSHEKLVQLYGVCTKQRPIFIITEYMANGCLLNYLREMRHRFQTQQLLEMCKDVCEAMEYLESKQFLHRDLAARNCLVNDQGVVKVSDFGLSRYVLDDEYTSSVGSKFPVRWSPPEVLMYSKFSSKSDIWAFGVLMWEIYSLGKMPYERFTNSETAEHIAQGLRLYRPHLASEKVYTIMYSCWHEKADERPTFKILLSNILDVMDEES
Sequence of ITK (Q08881 whole entry): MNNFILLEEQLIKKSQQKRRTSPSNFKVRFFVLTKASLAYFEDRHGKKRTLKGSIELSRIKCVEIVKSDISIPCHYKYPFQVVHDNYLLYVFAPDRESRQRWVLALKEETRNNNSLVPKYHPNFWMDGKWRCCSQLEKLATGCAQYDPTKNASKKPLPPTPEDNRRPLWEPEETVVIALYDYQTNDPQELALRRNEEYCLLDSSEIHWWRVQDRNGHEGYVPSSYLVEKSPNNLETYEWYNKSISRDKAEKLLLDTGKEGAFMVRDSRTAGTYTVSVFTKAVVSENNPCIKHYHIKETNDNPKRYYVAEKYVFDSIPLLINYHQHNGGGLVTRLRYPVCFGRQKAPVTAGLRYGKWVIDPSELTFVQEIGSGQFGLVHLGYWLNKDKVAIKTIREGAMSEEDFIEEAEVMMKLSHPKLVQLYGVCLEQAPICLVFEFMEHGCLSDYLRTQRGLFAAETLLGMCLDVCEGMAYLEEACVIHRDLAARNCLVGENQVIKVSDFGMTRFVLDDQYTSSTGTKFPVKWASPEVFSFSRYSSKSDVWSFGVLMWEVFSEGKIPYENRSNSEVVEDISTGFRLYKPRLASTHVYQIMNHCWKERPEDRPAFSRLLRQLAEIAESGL
Sequence of EGFR-T790M/L858R (P00533 25-1210 T790M/L858R): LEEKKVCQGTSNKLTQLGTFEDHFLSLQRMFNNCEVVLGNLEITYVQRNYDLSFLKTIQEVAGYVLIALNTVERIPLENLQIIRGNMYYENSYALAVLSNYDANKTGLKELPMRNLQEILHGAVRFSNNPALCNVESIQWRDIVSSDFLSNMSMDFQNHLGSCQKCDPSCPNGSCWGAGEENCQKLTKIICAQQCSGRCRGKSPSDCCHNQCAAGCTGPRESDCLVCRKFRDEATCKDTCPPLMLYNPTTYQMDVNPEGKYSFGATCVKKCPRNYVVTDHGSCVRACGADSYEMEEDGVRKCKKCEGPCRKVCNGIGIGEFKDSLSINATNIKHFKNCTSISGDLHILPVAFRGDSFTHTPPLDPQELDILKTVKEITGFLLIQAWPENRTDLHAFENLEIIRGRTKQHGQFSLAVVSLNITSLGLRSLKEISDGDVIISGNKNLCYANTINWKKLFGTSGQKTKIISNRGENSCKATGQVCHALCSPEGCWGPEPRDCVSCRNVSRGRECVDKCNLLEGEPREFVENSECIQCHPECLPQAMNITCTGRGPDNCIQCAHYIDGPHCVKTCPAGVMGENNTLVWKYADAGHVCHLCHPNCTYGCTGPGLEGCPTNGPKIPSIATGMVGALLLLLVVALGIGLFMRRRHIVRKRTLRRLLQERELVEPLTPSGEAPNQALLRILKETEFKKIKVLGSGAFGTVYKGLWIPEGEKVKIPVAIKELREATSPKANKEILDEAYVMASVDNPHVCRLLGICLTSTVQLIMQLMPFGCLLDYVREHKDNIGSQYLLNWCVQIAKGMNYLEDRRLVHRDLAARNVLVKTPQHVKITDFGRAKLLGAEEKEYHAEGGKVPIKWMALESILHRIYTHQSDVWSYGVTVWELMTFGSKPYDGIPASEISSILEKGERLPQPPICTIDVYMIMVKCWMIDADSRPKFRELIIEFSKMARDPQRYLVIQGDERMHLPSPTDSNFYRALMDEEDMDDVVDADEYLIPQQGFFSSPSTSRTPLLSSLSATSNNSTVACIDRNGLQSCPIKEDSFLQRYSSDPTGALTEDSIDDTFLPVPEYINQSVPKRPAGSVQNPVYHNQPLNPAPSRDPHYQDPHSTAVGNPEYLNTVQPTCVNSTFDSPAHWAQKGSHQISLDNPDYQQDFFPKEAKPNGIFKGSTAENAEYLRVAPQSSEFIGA
Sequence of EGFR-WT (P00533 668-1210): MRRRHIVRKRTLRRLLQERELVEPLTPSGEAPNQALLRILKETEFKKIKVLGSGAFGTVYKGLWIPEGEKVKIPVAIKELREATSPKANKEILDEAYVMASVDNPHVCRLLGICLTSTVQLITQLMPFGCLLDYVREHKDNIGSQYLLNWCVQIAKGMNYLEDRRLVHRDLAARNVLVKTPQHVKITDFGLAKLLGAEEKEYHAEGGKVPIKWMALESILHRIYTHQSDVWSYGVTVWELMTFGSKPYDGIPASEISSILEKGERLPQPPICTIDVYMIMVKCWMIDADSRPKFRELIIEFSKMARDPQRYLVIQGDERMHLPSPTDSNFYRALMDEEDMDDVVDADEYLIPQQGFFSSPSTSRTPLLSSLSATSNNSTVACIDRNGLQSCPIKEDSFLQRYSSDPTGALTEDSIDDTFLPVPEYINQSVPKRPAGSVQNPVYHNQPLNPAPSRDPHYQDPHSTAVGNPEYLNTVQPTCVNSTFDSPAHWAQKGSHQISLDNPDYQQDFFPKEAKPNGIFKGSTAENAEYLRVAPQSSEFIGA
Sequence of EGFR T790M (P00533 25-1210 T790M): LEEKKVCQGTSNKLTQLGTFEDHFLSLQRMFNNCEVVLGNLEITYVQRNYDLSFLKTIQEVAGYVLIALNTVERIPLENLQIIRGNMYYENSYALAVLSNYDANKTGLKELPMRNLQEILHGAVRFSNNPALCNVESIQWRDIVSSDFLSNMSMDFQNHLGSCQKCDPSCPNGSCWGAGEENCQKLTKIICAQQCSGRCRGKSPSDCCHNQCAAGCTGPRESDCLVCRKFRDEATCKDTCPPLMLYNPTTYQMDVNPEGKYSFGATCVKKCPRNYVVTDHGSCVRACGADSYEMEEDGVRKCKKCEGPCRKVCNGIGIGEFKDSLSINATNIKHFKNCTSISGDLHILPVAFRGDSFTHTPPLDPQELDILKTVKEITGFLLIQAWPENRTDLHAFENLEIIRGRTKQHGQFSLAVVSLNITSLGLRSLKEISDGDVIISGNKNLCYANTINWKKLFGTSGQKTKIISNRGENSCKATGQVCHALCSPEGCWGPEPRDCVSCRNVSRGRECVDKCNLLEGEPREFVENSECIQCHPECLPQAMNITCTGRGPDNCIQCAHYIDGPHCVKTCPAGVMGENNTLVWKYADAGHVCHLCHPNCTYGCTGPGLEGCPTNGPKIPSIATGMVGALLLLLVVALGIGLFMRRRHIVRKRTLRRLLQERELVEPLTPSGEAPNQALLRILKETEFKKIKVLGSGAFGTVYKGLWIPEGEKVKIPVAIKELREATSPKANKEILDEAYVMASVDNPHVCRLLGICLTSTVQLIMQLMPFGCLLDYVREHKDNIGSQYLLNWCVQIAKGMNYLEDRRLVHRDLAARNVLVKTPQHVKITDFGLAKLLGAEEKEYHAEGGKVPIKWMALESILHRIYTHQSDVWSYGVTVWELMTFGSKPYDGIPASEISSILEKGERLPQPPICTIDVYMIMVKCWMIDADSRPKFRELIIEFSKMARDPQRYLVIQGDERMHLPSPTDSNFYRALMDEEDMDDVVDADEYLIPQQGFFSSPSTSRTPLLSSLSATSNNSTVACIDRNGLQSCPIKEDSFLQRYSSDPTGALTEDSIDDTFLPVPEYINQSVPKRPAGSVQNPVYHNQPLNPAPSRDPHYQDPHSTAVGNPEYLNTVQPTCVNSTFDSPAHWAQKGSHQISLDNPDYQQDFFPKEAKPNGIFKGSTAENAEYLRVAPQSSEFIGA
Sequence of BTK (Canis lupus familiaris, UniProt A0A8I3P3Z9) (A0A8I3P3Z9 1-664): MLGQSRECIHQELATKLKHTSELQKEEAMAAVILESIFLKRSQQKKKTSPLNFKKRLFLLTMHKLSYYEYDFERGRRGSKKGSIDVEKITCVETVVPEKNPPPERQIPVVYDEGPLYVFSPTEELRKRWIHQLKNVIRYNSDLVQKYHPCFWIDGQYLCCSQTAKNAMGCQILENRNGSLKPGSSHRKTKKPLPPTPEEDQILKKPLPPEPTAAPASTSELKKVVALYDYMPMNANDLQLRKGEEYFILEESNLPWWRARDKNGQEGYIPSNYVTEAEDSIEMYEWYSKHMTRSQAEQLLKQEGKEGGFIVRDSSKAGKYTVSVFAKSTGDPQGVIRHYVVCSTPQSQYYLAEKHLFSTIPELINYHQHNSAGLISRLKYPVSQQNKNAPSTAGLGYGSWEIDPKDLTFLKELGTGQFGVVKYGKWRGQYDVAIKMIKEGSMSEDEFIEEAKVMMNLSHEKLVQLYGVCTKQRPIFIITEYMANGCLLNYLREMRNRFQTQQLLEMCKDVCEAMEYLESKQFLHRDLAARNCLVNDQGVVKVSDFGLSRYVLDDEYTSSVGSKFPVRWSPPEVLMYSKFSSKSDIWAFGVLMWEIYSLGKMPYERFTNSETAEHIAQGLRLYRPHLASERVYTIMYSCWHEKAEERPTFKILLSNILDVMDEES

concentration at which at least 50% of BTK is occupied [1]	>50% occupancy (concentration at which >50% of BTK is occupied) [2]	>90% occupancy (concentration at which >90% of BTK is occupied) [2]	covalent modification of BTK (mass spectrometry) [3]	IC50 ([4]; read-out: EGFR (wild type inhibition), EGFR wild type) [nM]	IC50 [5] [nM]	biochemical activity against BTK [7]	IC50 [7] [nM]	IC50 [4] [nM]	IC50 [9] [nM]	IC50 [11] [nM]	IC50 [12] [nM]	concentration at which at least 50% of BTK is occupied [13]	IC50 [14] [nM]	IC50 [15] [nM]	SMILES	% Inhibition IgG3 (1:100) [6] [%]	% Inhibition IgM (1:1600) [6] [%]	activity in the naïve B cell proliferation assay [8]	% inhibition ankle swelling [10] [%]
greater than 10 nM	A (greater than 1 nM)	C (greater than 50 nM)	completely modify	< 10	10 to 100	–	–	–	–	–	–	–	–	–	C=CC(=O)Nc1cccc(Nc2nc(Nc3ccc(OCCOC)cc3)ncc2F)c1 [Compound I-182, N-(3-(5-fluoro-2-(4-(2-methoxyethoxy)phenylamino)pyrimidin-4-ylamino)phenyl)acrylamide]	40	25	–	–
–	–	–	–	–	–	biochemically inactive	100 to 1000	1000 to 10000	1000 to 10000	–	–	–	–	–	CCC(=O)Nc1cccc(Nc2nc(Nc3ccccc3)ncc2C)c1 [I^R-7, N-(3-(5-methyl-2-(phenylamino)pyrimidin-4-ylamino)phenyl) propionamide]	–	–	not active	–
greater than 10 nM	A (greater than 1 nM)	B (greater than 10 nM)	completely modify	–	10 to 100	–	< 10	10 to 100	< 10	< 10	< 10	greater than 10 nM	–	–	C=CC(=O)Nc1cccc(Nc2nc(Nc3ccc(OCCOC)c(F)c3)ncc2F)c1 [Compound I-96, N-(3-(2-(3-fluoro-4-(2-methoxyethoxy)phenylamino)-5-fluoropyrimidin-4-ylamino)phenyl)acrylamide]	37.2	43	–	82.8
–	–	–	–	–	100 to 1000	–	100 to 1000	10 to 100	< 10	–	10 to 100	–	2230	2170	C=CC(=O)Nc1ccc(C)c(Nc2nccc(-c3cccnc3)n2)c1 [Compound I-56, N-(4-methyl-3-(4-(pyridin-3-yl)pyrimidin-2-ylamino)phenyl) acrylamide]	–	–	–	–
